Assay results as given in patent US20190280220A1, “METAL COMPLEXES” (Merck Patent GmbH, priority 2016, published 2019).

Assay: Comparison of solubility in organic solvents at room temperature
Assay type: physicochemical
Description: The compounds of the invention have very good solubility in nonpolar solvents (aromatics, alkylaromatics, cyclohexane) and dipolar aprotic solvents (ketones, ethers, esters, amides, sulfones, sulfoxides etc., such as acetone, butanone, cyclohexanone, di-n-butyl ether, THF, dioxane, 3-phenoxytoluene, anisole, ethyl acetate, butyl acetate, hexyl acetate, methyl benzoate, DMF, DMAC, NMP, DMSO, dimethyl sulfone, sulfolane, etc.) and mixtures thereof, and form solutions that are stable for a long period of time. Preferred concentrations are 5-500 mg/ml, more preferably 20-200 mg/ml.

SMILES	Solubility, 3-Phenoxytoluene [mg/mL]	Solubility, DMF [mg/mL]	Solubility, Cyclohexane [mg/mL]	Solubility, n-Butyl benzoate [mg/mL]	Solubility, Toluene [mg/mL]
c1ccc(-c2c(-c3ccccc3)c(-c3ccccc3)c(-c3cc[c]([Ir]([c]4ccc(-c5c(-c6ccccc6)c(-c6ccccc6)c(-c6ccccc6)c(-c6ccccc6)c5-c5ccccc5)cc4-c4ccccn4)[c]4ccc(-c5c(-c6ccccc6)c(-c6ccccc6)c(-c6ccccc6)c(-c6ccccc6)c5-c5ccccc5)cc4-c4ccccn4)c(-c4ccccn4)c3)c(-c3ccccc3)c2-c2ccccc2)cc1 [Ir(500)]	>150	>70	>5	>80	>100
c1ccc(-c2c(-c3ccccc3)c(-c3ccccc3)c(-c3ccc(-c4cc(-c5ccccn5)[c]5cc4-c4ccccc4-c4cc6cc(c4)-c4ccccc4-c4c[c](c(-c7ccccn7)cc4-c4ccc(-c7c(-c8ccccc8)c(-c8ccccc8)c(-c8ccccc8)c(-c8ccccc8)c7-c7ccccc7)cc4)[Ir]5[c]4cc(c(-c5ccc(-c7c(-c8ccccc8)c(-c8ccccc8)c(-c8ccccc8)c(-c8ccccc8)c7-c7ccccc7)cc5)cc4-c4ccccn4)-c4ccccc4-6)cc3)c(-c3ccccc3)c2-c2ccccc2)cc1 [Ir(530)]	>150	>70	>5	>80	>100
